Assay results taken from patent US20070027175A1, “Antineoplastic activities of ellipticine and its derivatives” (priority 2005, published 2007).
Where two headings read alike, the source gives them in different places.

Legend:
[1] = tested on: RPMI8226 myeloma cell line; experiment: CellTiter-Glo luminescent cell viability assay, RPMI8226; type: cell-based, human; design: unit of the concentration uncertain
Description: (§1) The dosage of each derivative was set at 2, 0.2 and 0.02 mM. A cell culture medium control and 0.5% DMSO control was maintained in each experiment. The cell viability was tested each day over a period of five days using the CellTiter-Glo luminescent cell viability assay kit from Promega Co.
Cell Titer-Glo luminescent cell viability assay kit from Promega Co (Madison, Wis.) was used to determine cell growth inhibition by the various compounds tested. The kit determines cell viability by quantifying the amount of ATP present in the cell culture medium. Presence of ATP signals the presence of metabolically active cells (3). The intensity of luminescence was measured by a computerized luminometer (Promega, Co. Madison, Wis.). Each well was read five times within 30 minutes of adding Cell Titer-Glo reagent mixture. […]

U266 myeloma cell line = tested on: U266 myeloma cell line; design: cell viability (CellTiter-Glo luminescent assay): dose or concentration left out as unconfirmed; conditions: U266
Description: as §1
U266 cell line was one of 12 myeloma cell lines used in screening of anti-myeloma agents. In FIG. 10A, cells were treated with 14 ellipticine derivatives (0.5 mM) obtained from the DTP; control cells were untreated. Ellipticine derivatives are coded with NSC identifiers. For 5 days, cell viability was measured every 24 hours using CellTiter-Glo Luminescent Assay. […] In FIG. 10B, U266 cells, along with six other myeloma cell lines, were co-cultured in direct contact with human fetal bone mesenchymal cells and treated with EPED3 (0.5 mM and 2 mM) or Velcade (0.5 mM); control cells were untreated. Cell proliferation was assessed by MTT assay every 24 hours for 5 days. […] Error bars indicate standard deviation.
(§2) Cell Titer-Glo luminescent cell viability assay kit from Promega Co (Madison, Wis.) was used to determine cell growth inhibition by the various compounds tested. The kit determines cell viability by quantifying the amount of ATP present in the cell culture medium. Presence of ATP signals the presence of metabolically active cells (3). The intensity of luminescence was measured by a computerized luminometer (Promega, Co. Madison, Wis.). Each well was read five times within 30 minutes of adding Cell Titer-Glo reagent mixture.
(§3) Cells were contacted with the antineoplastic agents in ninety six well culture plates. The concentration of each neoplastic agent was maintained a constant. A cell culture medium control and 0.5% DMSO control were maintained in each set of experiments. The cell viability was tested every day using the CellTiter-Glo luminescent cell viability kit from Promega Co. (Madison, Wis.) for a period of five days.

CAG myeloma cell line = experiment: CellTiter-Glo luminescent cell viability assay, CAG; type: cell-based, human; design: unit of the concentration uncertain
Description: as §1, §2, §3

Ark myeloma cell line = experiment: CellTiter-Glo luminescent cell viability assay, Ark; type: cell-based, human; design: unit of the concentration uncertain
Description: as §1, §2, §3

NCI-60 cancer panel = conditions: average across the cell lines of the concentration at which growth is inhibited 50%; unit in the High Conc. footnote; cited from earlier work
[2] = tested on: myeloma cell lines ARK, KMS11, RPMI 8226, and U266; experiment: In vitro screening of DTP compounds on myeloma cell lines (CellTiter-Glo); type: cell-based, human
Description: Eight myeloma cell lines were contacted with the antineoplastic agents to be tested in ninety six well culture plates. […]
Myeloma cell lines were maintained at >90% viability at 37° C. and 5% CO2. Cells were diluted to 20,000 cells/ml in fresh medium. A 50-μl aliquot of cell suspension was seeded in 96-well tissue culture plates to final cell counts of 1,000 cells/well. All compounds obtained from NCI's Developmental Therapeutics Program (DTP compounds) were dissolved in 100% dimethylsulfoxide (DMSO) (Sigma-Aldrich, St. Louis, Mo.) at 1 mg/ml and further diluted in fresh medium to 1 μg/ml. Each compound (50-μl aliquots) was distributed to a well containing 1,000 myeloma cells. Each plate included controls with addition of only medium or only DMSO (0.5% final concentration). All experiments were conducted in triplicate.
Using CellTiter-Glo Luminescent Assay kit (Promega, Madison, Wis.) according to manufacturer's instructions, cell viability was assayed every 24 hours after addition of DTP compound for 5 days. Briefly, the CellTiter-Glo substrate was dissolved in buffer, and 100 μl was added to each well. […] The statistic sampling distribution for each compound per cell line was based on sample of n=15 measurements.
Other ellipticine derivatives from the DTP (at 0.5 mM final concentration) were used to screen the same four myeloma cell lines.

[3] = tested on: 12 myeloma cell lines (Ark, BW288, CAG, Delta47, DF15, JJN3, kms11, L363, opm2, RPMI8226, U266 and XG1); experiment: Comparative study with existing anti-myeloma drugs (CellTiter-Glo); type: cell-based, human
Source text: The results obtained from these controls are pooled together in the figure (●). The dose of each compound was set […].
Comparative study of NSC 338258 with existing anti-myeloma drugs Myeloma cell lines were exposed to NSC 338258 and existing anti myeloma drugs, Adriamycin® (Doxorubicin Hydrochloride) and Etoposide (VP-16-213) in ninety six well culture plates. The concentration of each compound was set […]. […] The cell growth was near zero in the following days (day 4 onwards; FIG. 6). It was also observed that 12 myeloma cell lines (Ark, BW288, CAG, Delta47, DF15, JJN3, kms11, L363, opm2, RPMI8226, U266 and XG1) responded to the same dosage (0.2 μM) of NSC 338258, VP-16-213 and Adriamycin in 5 days.

Compound: COc1ccc2[nH]c3c(C)c4ccncc4c(C)c3c2c1 [NSC 69187, ellipticine-9-methoxy-]
- cell viability (CellTiter-Glo luminescent assay) ([1]; 0.02 (unit uncertain), Day 1): 103,366
- cell viability (CellTiter-Glo luminescent assay) ([1]; 0.02 (unit uncertain), Day 2): 238,331
- cell viability (CellTiter-Glo luminescent assay) ([1]; 0.02 (unit uncertain), Day 3): 411,171
- cell viability (CellTiter-Glo luminescent assay) ([1]; 0.02 (unit uncertain), Day 4): 869,367
- cell viability (CellTiter-Glo luminescent assay) ([1]; 0.02 (unit uncertain), Day 5): 1,011,078
- cell viability (CellTiter-Glo luminescent assay) ([1]; 0.2 (unit uncertain), Day 1): 82,834
- cell viability (CellTiter-Glo luminescent assay) ([1]; 0.2 (unit uncertain), Day 2): 148,198
- cell viability (CellTiter-Glo luminescent assay) ([1]; 0.2 (unit uncertain), Day 3): 216,515
- cell viability (CellTiter-Glo luminescent assay) ([1]; 0.2 (unit uncertain), Day 4): 311,641
- cell viability (CellTiter-Glo luminescent assay) ([1]; 0.2 (unit uncertain), Day 5): 379,475
- cell viability (CellTiter-Glo luminescent assay) ([1]; 2 (unit uncertain), Day 1): 21,912
- cell viability (CellTiter-Glo luminescent assay) ([1]; 2 (unit uncertain), Day 2): 2,688
- cell viability (CellTiter-Glo luminescent assay) ([1]; 2 (unit uncertain), Day 3): 820
- cell viability (CellTiter-Glo luminescent assay) ([1]; 2 (unit uncertain), Day 4): 601
- cell viability (CellTiter-Glo luminescent assay) ([1]; 2 (unit uncertain), Day 5): 213
- cell viability (CellTiter-Glo luminescent assay) (U266 myeloma cell line; 0.02, Day 1): 30,188
- cell viability (CellTiter-Glo luminescent assay) (U266 myeloma cell line; 0.02, Day 2): 46,889
- cell viability (CellTiter-Glo luminescent assay) (U266 myeloma cell line; 0.02, Day 3): 63,864
- cell viability (CellTiter-Glo luminescent assay) (U266 myeloma cell line; 0.02, Day 4): 112,366
- cell viability (CellTiter-Glo luminescent assay) (U266 myeloma cell line; 0.02, Day 5): 145,073
- cell viability (CellTiter-Glo luminescent assay) (U266 myeloma cell line; 0.2, Day 1): 24,729
- cell viability (CellTiter-Glo luminescent assay) (U266 myeloma cell line; 0.2, Day 2): 38,799
- cell viability (CellTiter-Glo luminescent assay) (U266 myeloma cell line; 0.2, Day 3): 45,134
- cell viability (CellTiter-Glo luminescent assay) (U266 myeloma cell line; 0.2, Day 4): 69,867
- cell viability (CellTiter-Glo luminescent assay) (U266 myeloma cell line; 0.2, Day 5): 90,555
- cell viability (CellTiter-Glo luminescent assay) (U266 myeloma cell line; 2, Day 1): 7,818
- cell viability (CellTiter-Glo luminescent assay) (U266 myeloma cell line; 2, Day 2): 3,633
- cell viability (CellTiter-Glo luminescent assay) (U266 myeloma cell line; 2, Day 3): 1,048
- cell viability (CellTiter-Glo luminescent assay) (U266 myeloma cell line; 2, Day 4): 628
- cell viability (CellTiter-Glo luminescent assay) (U266 myeloma cell line; 2, Day 5): 144
- cell viability (CellTiter-Glo luminescent assay) (CAG myeloma cell line; 0.02 (unit uncertain), Day 1): 188,754
- cell viability (CellTiter-Glo luminescent assay) (CAG myeloma cell line; 0.02 (unit uncertain), Day 2): 552,402
- cell viability (CellTiter-Glo luminescent assay) (CAG myeloma cell line; 0.02 (unit uncertain), Day 3): 805,110
- cell viability (CellTiter-Glo luminescent assay) (CAG myeloma cell line; 0.02 (unit uncertain), Day 4): 2,582,505
- cell viability (CellTiter-Glo luminescent assay) (CAG myeloma cell line; 0.02 (unit uncertain), Day 5): 4,299,468
- cell viability (CellTiter-Glo luminescent assay) (CAG myeloma cell line; 0.2 (unit uncertain), Day 1): 164,436
- cell viability (CellTiter-Glo luminescent assay) (CAG myeloma cell line; 0.2 (unit uncertain), Day 2): 358,735
- cell viability (CellTiter-Glo luminescent assay) (CAG myeloma cell line; 0.2 (unit uncertain), Day 3): 511,726
- cell viability (CellTiter-Glo luminescent assay) (CAG myeloma cell line; 0.2 (unit uncertain), Day 4): 1,187,656
- cell viability (CellTiter-Glo luminescent assay) (CAG myeloma cell line; 0.2 (unit uncertain), Day 5): 1,595,148
- cell viability (CellTiter-Glo luminescent assay) (CAG myeloma cell line; 2 (unit uncertain), Day 1): 88,285
- cell viability (CellTiter-Glo luminescent assay) (CAG myeloma cell line; 2 (unit uncertain), Day 2): 58,508
- cell viability (CellTiter-Glo luminescent assay) (CAG myeloma cell line; 2 (unit uncertain), Day 3): 17,247
- cell viability (CellTiter-Glo luminescent assay) (CAG myeloma cell line; 2 (unit uncertain), Day 4): 9,111
- cell viability (CellTiter-Glo luminescent assay) (CAG myeloma cell line; 2 (unit uncertain), Day 5): 1,745
- cell viability (CellTiter-Glo luminescent assay) (Ark myeloma cell line; 0.02 (unit uncertain), Day 1): 119,617
- cell viability (CellTiter-Glo luminescent assay) (Ark myeloma cell line; 0.02 (unit uncertain), Day 2): 244,779
- cell viability (CellTiter-Glo luminescent assay) (Ark myeloma cell line; 0.02 (unit uncertain), Day 3): 371,712
- cell viability (CellTiter-Glo luminescent assay) (Ark myeloma cell line; 0.02 (unit uncertain), Day 4): 824,251
- cell viability (CellTiter-Glo luminescent assay) (Ark myeloma cell line; 0.02 (unit uncertain), Day 5): 1,347,042
- cell viability (CellTiter-Glo luminescent assay) (Ark myeloma cell line; 0.2 (unit uncertain), Day 1): 92,678
- cell viability (CellTiter-Glo luminescent assay) (Ark myeloma cell line; 0.2 (unit uncertain), Day 2): 208,050
- cell viability (CellTiter-Glo luminescent assay) (Ark myeloma cell line; 0.2 (unit uncertain), Day 3): 256,789
- cell viability (CellTiter-Glo luminescent assay) (Ark myeloma cell line; 0.2 (unit uncertain), Day 4): 506,725
- cell viability (CellTiter-Glo luminescent assay) (Ark myeloma cell line; 0.2 (unit uncertain), Day 5): 826,957
- cell viability (CellTiter-Glo luminescent assay) (Ark myeloma cell line; 2 (unit uncertain), Day 1): 14,932
- cell viability (CellTiter-Glo luminescent assay) (Ark myeloma cell line; 2 (unit uncertain), Day 2): 815
- cell viability (CellTiter-Glo luminescent assay) (Ark myeloma cell line; 2 (unit uncertain), Day 3): 289
- cell viability (CellTiter-Glo luminescent assay) (Ark myeloma cell line; 2 (unit uncertain), Day 4): 463
- cell viability (CellTiter-Glo luminescent assay) (Ark myeloma cell line; 2 (unit uncertain), Day 5): 375
- Mean GI50 (NCI-60 cancer panel): −6.35 log^10 molar
- inhibition of cell viability in four myeloma cell lines ([2]; 0.5 mg/ml, every 24 hours over 5 days): most significantly inhibited cell viability
- effective invitro dosage (cell growth inhibition) ([2]; myeloma cell lines): 0.2 µM

Compound: COc1cc([C@@H]2c3cc4c(cc3[C@@H](O[C@@H]3O[C@@H]5CO[C@@H](C)O[C@H]5[C@H](O)[C@H]3O)[C@H]3COC(=O)[C@H]23)OCO4)cc(OC)c1O [VP-16-213, Etoposide]
- response of 12 myeloma cell lines ([3]; 0.2 μM, in 5 days): responded
- speed of response compared with EPED3 ([3]; myeloma cell lines (n=12), regardless of the concentration): much more delayed response
